Test results as given in US8765433B2, “Alcohol dehydrogenases (ADH) useful for fermentive production of lower alkyl alcohols” (priority 2009, dated 2014).

Tests used:
Format in all cases: biochemical
[1] = molecular target: T1, horse liver ADH (HLADH), SEQ ID NO: 21 (Equus caballus, UniProt P00327); assay: isobutanol oxidation kinetics; conditions: 30° C., pH 8.8, 7.5 mM NAD
T1 construct: purchased Sigma A-6128
Procedure: (§1) As a routine practice, the crude extracts and purified proteins were assayed for butanol oxidation activity, in order to ensure that the recombinant proteins were active throughout the purification process. […] Alcohol oxidation activities were carried out in 50 mM sodium phosphate buffer at pH 8.8 and aldehyde reduction reactions were assayed in 190 mM potassium phosphate buffer at pH 7.0. Depending on the nature of reaction being carried out, the enzyme and cofactor stocks were diluted in the reaction buffers at the respective pHs. Either buffer or cell extract prepared from the proprietary E. coli strain (with no ADH plasmid) was used as the negative control for assays with purified protein and cell-free extracts, respectively.
(§2) Kinetic constants of the ADH enzymes were calculated and compared to identify those candidate ADH enzymes with the most desirable properties for the conversion of isobutyraldehyde to isobutanol in the last step of the engineered pathway for isobutanol production. The assays for determining the kinetic constants were carried out using initial rates from the assays described above. […] The concentration of a given enzyme was such that it was conducive for the measurement of initial velocities over a 1-min time course. For each enzyme, Michaelis-Menten plots were generated with a broad range of substrate concentrations. Rough estimates of KM were obtained, based on which the assays were redesigned so as to use substrate concentrations in the range 0.5 to 10 times the KM value, to be able to obtain the appropriate kinetic constants. […] When calculating the KI for isobutanol, the same reactions were carried out in the presence of varying concentrations of isobutanol (generally 0-535 mM) in the reaction (see FIG. 7, for example). Reactions with isobutanol substrate were performed at 30° C. in 50 mM Sodium phosphate buffer, pH 8.8, containing 7.5 mM NAD. The Enzyme kinetics module (Version 1.3) of SigmaPlot 11 (Systat Software, Inc.) was used to fit data to Michaelis-Menten equations and calculate the kinetic constants. The kcat/KM is derived from the individual numbers of kcat and KM and not an experimentally determined value. The ratios of the KM, KI, and kcat/KM for each candidate enzyme as compared to the same parameter for SadB are given in Table 9.
(§3) For those enzymes marked with an asterisk in Table 7, at least 3 assays were performed with separate preparations of the enzyme. All other numbers are values from either one assay or are averages from 2 assays performed with the same enzyme sample.

[2] = molecular target: T2, Beijerinckia indica subsp. Indica ATCC 9039 ADH (BiADH), SEQ ID NO: 31 (Beijerinckia indica, UniProt B2IGW3); assay: isobutanol oxidation kinetics; conditions: 30° C., pH 8.8, 7.5 mM NAD
T2 sequence (B2IGW3 1-347): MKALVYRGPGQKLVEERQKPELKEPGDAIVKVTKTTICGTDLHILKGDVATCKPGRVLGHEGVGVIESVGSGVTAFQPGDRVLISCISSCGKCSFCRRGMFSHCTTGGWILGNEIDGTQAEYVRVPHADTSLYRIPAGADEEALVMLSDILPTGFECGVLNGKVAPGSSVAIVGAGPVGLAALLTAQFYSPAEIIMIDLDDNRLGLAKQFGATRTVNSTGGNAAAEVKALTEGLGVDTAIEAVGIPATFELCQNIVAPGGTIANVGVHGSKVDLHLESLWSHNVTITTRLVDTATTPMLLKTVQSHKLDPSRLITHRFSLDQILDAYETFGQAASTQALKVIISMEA
Procedure: as §1, §2, §3

[3] = test system: Achromobacter xylosoxidans SadB (SadB), SEQ ID NO: 26; assay: isobutanol oxidation kinetics; conditions: 30° C., pH 8.8, 7.5 mM NAD
Procedure: as §1, §2, §3

[4] = molecular target: T3, Clostridium beijerinckii ADH (CbADH), SEQ ID NO: 29 (Clostridium beijerinckii, UniProt P25984); assay: isobutyraldehyde reduction kinetics (A340, initial rates); conditions: relative to SadB
T3 construct: hexa-histidine (pBADHisA) (N); made in house; host or cells: E. coli (BL21-CodonPlus or a proprietary E. coli strain)
T3 sequence (P25984 1-351): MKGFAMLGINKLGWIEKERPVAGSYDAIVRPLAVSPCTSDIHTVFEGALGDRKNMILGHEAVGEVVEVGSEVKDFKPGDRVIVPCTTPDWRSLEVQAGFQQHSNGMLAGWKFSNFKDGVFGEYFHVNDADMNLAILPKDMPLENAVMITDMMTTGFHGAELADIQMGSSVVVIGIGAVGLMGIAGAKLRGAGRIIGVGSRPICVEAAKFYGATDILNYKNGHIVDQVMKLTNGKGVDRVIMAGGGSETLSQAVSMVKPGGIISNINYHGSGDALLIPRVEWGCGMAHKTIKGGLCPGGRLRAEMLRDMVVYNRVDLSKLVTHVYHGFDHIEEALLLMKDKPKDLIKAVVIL
Description: This example describes preparation of ADH-gene constructs for over-expression/purification and measurement of enzyme activities using a time-course assay. Horse-liver ADH (HLADH; A-6128) was purchased from Sigma. Achromobacter xylosoxidans SadB (SadB), Saccharomyces cerevisiae ADH6 (ScADH6) and ADH7 (ScADH7), Entamoeba histolytica ADH1 (EhADH1), Bos Taurus Aldehyde Reductase (BtARD), Beijerinckia indica subsp. Indica ATCC 9039 (BiADH), Clostridium beijerinckii ADH (CbADH), Rana perezi ADH8 (RpADH8), Rattus norvegicus ADH1 (RnADH1), Thermus sp. ATN1 ADH (TADH), Phenylobacterium zucineum HLK1 ADH (PzADH), Methylocella silvestris BL2 ADH (MsADH), Acinetobacter baumannii AYE ADH (AbADH), Geobacillus sp. WCH70 ADH (GbADH), Vanderwaltozyma polyspora DSM 70294 ADH (VpADH), Mucor circinelloides ADH (McADH), and Rhodococcus erythropolis PR4ADH (ReADH) were the candidates for which subclones were prepared for protein expression and purification.
as §1
Kinetic constants of the ADH enzymes were calculated and compared to identify those candidate ADH enzymes with the most desirable properties for the conversion of isobutyraldehyde to isobutanol in the last step of the engineered pathway for isobutanol production. The assays for determining the kinetic constants were carried out using initial rates from the assays described above. […] The concentration of a given enzyme was such that it was conducive for the measurement of initial velocities over a 1-min time course. For each enzyme, Michaelis-Menten plots were generated with a broad range of substrate concentrations. Rough estimates of KM were obtained, based on which the assays were redesigned so as to use substrate concentrations in the range 0.5 to 10 times the KM value, to be able to obtain the appropriate kinetic constants. […] Reactions with isobutanol substrate were performed at 30° C. in 50 mM Sodium phosphate buffer, pH 8.8, containing 7.5 mM NAD. The Enzyme kinetics module (Version 1.3) of SigmaPlot 11 (Systat Software, Inc.) was used to fit data to Michaelis-Menten equations and calculate the kinetic constants. The kcat/KM is derived from the individual numbers of kcat and KM and not an experimentally determined value.
as §3

T1 sequence (P00327 whole entry): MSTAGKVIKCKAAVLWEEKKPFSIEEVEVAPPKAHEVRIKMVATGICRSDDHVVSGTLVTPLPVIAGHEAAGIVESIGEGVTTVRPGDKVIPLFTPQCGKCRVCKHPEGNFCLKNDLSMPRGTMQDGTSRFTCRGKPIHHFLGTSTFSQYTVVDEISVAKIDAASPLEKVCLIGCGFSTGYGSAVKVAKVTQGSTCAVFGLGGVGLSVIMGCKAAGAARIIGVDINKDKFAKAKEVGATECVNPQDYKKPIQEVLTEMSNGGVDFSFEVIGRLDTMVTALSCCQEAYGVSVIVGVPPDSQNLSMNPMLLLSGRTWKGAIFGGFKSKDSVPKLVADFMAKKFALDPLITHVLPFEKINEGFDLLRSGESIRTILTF

| SMILES | kcat (isobutanol oxidation) [1] | kcat (isobutanol oxidation) [2] | Km [3] [mM] | kcat (isobutanol oxidation) [3] | KM as a percentage of the same parameter for SadB [4] [%] | kcat as a percentage of the same parameter for SadB [4] [%] | kcat/KM as a percentage of the same parameter for SadB [4] [%] |
| --- | --- | --- | --- | --- | --- | --- | --- |
| CC(C)CO [isobutanol, 2-methylpropan-1-ol] | [Isobutanol oxidation: kcat = 5 sec^−1; | [Isobutanol oxidation: kcat = 9 sec^−1; | 24 | [Isobutanol oxidation: kcat = 2 sec^−1; | – | – | – |
| CC(C)C=O [isobutyraldehyde] | – | – | – | – | 150 | 113 | 81 |
